The source made the active and inactive calls.
Experiments:
[1] = target: FAD-linked sulfhydryl oxidase ALR (Homo sapiens, UniProt P55789); assay: inhibitors of human ALR sulfhydryl oxidase, dose response, biochemical, H2O2 detection, luminescence, cherry-pick (AID 493248)
Streptococcus = assay: Group A Streptococcus viability loss, dose response, counter-screen for streptokinase expression inhibitor project, luminescence, BacTiterGlo (AID 1915); assay type: functional, organism-based;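 also: potency for reduction of bacterial viability or growth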
[2] = inhibitors of firefly luciferase expression or activity, dose response, H4 neuroglioma cells, luminescence (AID 1990); assay type: functional, cell-based
[3] = system: Streptococcus sp. 'group A'; assay: growth inhibition of control SK(-) GAS strain, dose response, counter-screen for streptokinase expression inhibitor project, luminescence, kanamycin, BacTiterGlo, confirmation (AID 1900); assay type: functional, organism-based
[4] = Luminescence Cell-Based Dose Response HTS to Identify Inhibitors of 5'UTR Stem-Loop Driven Prion Protein mRNA Translation in H4 Neuroglioblastoma Cells. [Related pubchem assays: 1827 (Project Summary), 1813 (Primary HTS)]; assay type: functional
[5] = inhibitors of SNCA 5'UTR-driven reporter translation, confirmation, H4 neuroglioma cells, luminescence (AID 1988); assay type: functional, cell-based
[6] = target: T1, Short transient receptor potential channel 4 (Mus musculus, UniProt Q9QUQ5); assay: mouse TRPC4 channel activators, dose response, cell-based, HEK293 TRPC4/mu-opioid, Fluo-4 calcium (AID 434937); assay type: functional
T1 sequence (Q9QUQ5 whole entry): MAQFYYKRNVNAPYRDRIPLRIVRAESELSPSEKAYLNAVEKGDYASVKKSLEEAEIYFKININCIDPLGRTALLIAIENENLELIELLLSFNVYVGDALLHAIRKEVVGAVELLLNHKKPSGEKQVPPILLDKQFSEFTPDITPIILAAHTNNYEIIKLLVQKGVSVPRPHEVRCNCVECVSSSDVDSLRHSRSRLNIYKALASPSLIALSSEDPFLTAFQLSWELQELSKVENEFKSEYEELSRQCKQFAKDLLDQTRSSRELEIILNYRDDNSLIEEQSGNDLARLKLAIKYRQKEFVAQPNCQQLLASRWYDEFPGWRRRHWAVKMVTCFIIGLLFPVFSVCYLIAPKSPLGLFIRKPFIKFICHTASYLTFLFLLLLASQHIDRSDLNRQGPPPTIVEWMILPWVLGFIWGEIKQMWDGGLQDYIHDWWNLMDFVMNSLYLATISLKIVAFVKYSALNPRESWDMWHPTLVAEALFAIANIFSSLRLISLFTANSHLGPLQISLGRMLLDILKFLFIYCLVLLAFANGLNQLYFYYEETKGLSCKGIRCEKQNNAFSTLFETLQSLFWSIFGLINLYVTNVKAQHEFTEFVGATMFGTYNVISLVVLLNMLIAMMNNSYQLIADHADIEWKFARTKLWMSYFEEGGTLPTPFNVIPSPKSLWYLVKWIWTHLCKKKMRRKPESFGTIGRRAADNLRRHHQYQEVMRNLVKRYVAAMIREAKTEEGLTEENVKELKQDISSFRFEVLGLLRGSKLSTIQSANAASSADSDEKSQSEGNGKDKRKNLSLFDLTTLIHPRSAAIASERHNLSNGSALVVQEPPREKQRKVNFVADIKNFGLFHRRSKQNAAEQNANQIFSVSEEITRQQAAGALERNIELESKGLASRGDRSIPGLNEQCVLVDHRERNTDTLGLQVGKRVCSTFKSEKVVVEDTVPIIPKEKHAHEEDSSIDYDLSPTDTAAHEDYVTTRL

Genome polyprotein = Genome polyprotein (dengue virus type 2, UniProt P29990); assay: Dengue-2 NS5 methyltransferase inhibitors, primary screen, biochemical, confirmation dose response (AID 588689); assay type: functional
H9c2 = assay: cells; assay type: functional, cell-based; settings: Rattus norvegicus, H9c2, Myocardium;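 also: confirmatory concentration-response retest of ultra-high-throughput screening hits for modulation of myocardial damage; cell death induced by hydrogen peroxide oxidative stress; compound pretreatment for 60 min then peroxide exposure for 2 h; potency is for protecting the cells against peroxide damage rather than for killing them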
[7] = C. albicans growth with fluconazole, confirmation, fluorescence, retest (AID 2467); assay type: functional, cell-based
Vero = assay: cells; assay type: functional; settings: Chlorocebus sabaeus
[8] = NIH-3T3 fibroblast cytotoxicity, dose response, cytotoxicity control, cell-based, fluorescence, Alamar Blue, secondary assay (AID 2327); assay type: functional;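 also: NIH-3T3 mouse fibroblasts cultured with fluconazole at 8 µg/mL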
[9] = cytotoxicity toward NIH3T3 fibroblasts, dose response, counter-screen, cell-based, ATP luminescence, mouse fibroblasts (AID 2010); assay type: functional;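 also: cells exposed to compound for about 90 hours before reading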
[10] = inhibitors of intracellular T. cruzi replication, confirmation, NIH3T3 host cells, beta-gal luminescence (AID 2044); assay type: functional, cell-based;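 also: intracellular parasites grown in NIH/3T3 mouse fibroblasts as host cells; luminescent beta-galactosidase reporter signal from transgenic T. cruzi replicating inside host cells; inhibitors lower the luminescence signal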
[11] = target: Glucose-6-phosphate 1-dehydrogenase (Homo sapiens, UniProt P11413); assay: human G6PD enzyme inhibitors, dose response, selectivity assay for P. falciparum G6PD inhibitor project, biochemical, fluorescence (AID 504792); assay type: functional
Cytochrome P450 2D6 = Cytochrome P450 2D6 (Homo sapiens, UniProt P10635);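 also: CYP2D6 member of a cytochrome P450 panel assay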
Cytochrome P450 1A2 = target: T2, Cytochrome P450 1A2 (Homo sapiens, UniProt P05177);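 also: PubChem cytochrome P450 panel assay, CYP1A2 panel member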
T2 sequence (P05177 whole entry): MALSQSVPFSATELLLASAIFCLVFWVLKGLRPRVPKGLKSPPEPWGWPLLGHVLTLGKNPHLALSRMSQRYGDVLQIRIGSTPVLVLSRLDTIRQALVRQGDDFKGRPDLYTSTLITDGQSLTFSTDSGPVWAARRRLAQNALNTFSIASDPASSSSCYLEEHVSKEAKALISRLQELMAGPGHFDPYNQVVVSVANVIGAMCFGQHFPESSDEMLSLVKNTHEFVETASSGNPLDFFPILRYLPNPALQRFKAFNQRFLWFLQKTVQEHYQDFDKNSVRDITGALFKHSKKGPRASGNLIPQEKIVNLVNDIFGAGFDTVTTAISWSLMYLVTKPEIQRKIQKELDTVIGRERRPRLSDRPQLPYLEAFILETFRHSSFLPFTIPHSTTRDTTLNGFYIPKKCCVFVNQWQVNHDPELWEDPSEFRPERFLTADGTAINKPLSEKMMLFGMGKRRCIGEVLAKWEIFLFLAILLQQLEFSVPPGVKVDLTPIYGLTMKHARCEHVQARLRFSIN

Cytochrome P450 2C9 = Cytochrome P450 2C9 (Homo sapiens, UniProt P11712)
[12] = Luminescence Cell-Based Dose Retest to Confirm Inhibitors of Cancer Stem Cells. [Related pubchem assays (depositor defined):AID2717, AID2721]; assay type: functional; settings: Homo sapiens
Cytochrome P450 3A4 = Cytochrome P450 3A4 (Homo sapiens, UniProt P08684);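 also: CYP3A4 tested as one member of a cytochrome P450 panel screen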

With `Cc1cc(C(=O)NNC(=O)CCN2CCN(c3ccccc3)CC2)c2ccccc2n1` the AC50 [1] was 5.94 µM (active).

For `CCOc1ccc(/C=C2/Sc3ccc(C(=O)N4CCN(C(=O)c5ccco5)CC4)cc3N(C)C2=O)cc1OC`, the EC50 (Streptococcus) was 5.98 µM (active), the EC50 [2] was 105 µM (active) and the EC50 [3] was 2.63 µM (active). The EC50 [4] was > 120 µM (not active) and the EC50 [5] was 97.7 µM (active).

In the case of `Oc1ccc(-c2onc3ccc(Cl)cc23)cc1`, the AC50 [1] is reported as 6.97 µM (active).

In the case of `O=C(NCC(=O)N1CCN(c2ccccc2)CC1)c1cccs1`, the AC50 [1] is reported as 21.4 µM (active).

In the case of `CCn1c(S)nnc1-c1ccccc1O`, the AC50 [1] is reported as 9.17 µM (active).

With `CC1CC(C)CN(CCCNC(=O)c2ccc3c(c2)N(Cc2ccccc2)C(=O)c2ccccc2[S+]3[O-])C1` (stereo not given) the EC50 [6] was 0.841 µM (active).

With `Sc1nnc(/C=C/c2ccccc2)o1` the AC50 [1] was 29.9 µM (active).

With `CCOc1ccc(N2C(=O)NC(=O)/C(=C\c3ccccc3[N+](=O)[O-])C2=O)cc1` the IC50 (Genome polyprotein) was 30.5 µM (active).

With `c1coc(-c2nnc3sc(-c4cccs4)nn23)c1` the IC50 (H9c2) was 15.6 µM (active).

In the case of `CCc1ccc(C(=O)c2cnc3ccc(OC)cc3c2N2CCN(CC)CC2)cc1`, the EC50 [6] is reported as 5.96 µM (active).

In the case of `COc1cccc(C(=O)N(C)CC2CCN(CCc3cccc(C(F)(F)F)c3)CC2)c1`, the EC50 [6] is reported as 0.596 µM (active).

In the case of `COc1ccccc1C(=O)NNC(=S)NC(=O)c1cc(OC)c(OC)c(OC)c1`, the EC50 [7] is reported as 2.49 µM (active), the EC50 (Streptococcus) is reported as 2.5 µM (active) and the CC50 (Vero) is reported as 13.6 µM (active). For the same compound, the EC50 [3] was 1.25 µM (active), the EC50 [8] was > 150 µM (inactive) and the EC50 [9] was 6.32 µM (active). For the same compound, the EC50 [10] was 158 nM (active).

In the case of `CCOC(=O)c1ccc(/[N+]([O-])=C/c2ccccc2)cc1`, the IC50 [11] is reported as > 80 µM (inactive).

For `Cc1cccc(C(=O)N2CCc3cc(-c4csc(NC(=O)CN5CCCC5)n4)ccc32)c1`, the CC50 (Vero) was > 25 µM (active).

For `CC(C)(C)NS(=O)(=O)c1ccc(NC(=O)c2cc(-c3ccccc3)nc3ccccc23)cc1`, the AC50 (Cytochrome P450 2D6) was 3.98 µM (inconclusive), the AC50 (Cytochrome P450 1A2) was 3.16 µM (inconclusive) and the EC50 [9] was > 60 µM (not active). The EC50 [10] was 2030 nM (active).

For `CC(C)c1nnc(NC(=O)c2cccc(-n3cnnn3)c2)s1`, the IC50 [11] was 50 µM (inactive).

For `CCN(CC)CCCOc1ccc(Cl)c(Cl)c1`, the EC50 [6] was 2.37 µM (active).

In the case of `CC(=O)n1cc([C@H]2C=C(C(=O)NCc3ccccc3)O[C@@H](OCc3ccc(CO)cc3)C2)c2ccccc21`, the EC50 [6] is reported as 8.41 µM (active).

With `Cc1ccc2nc(O)c(CN(CCCN3CCOCC3)C(=O)Nc3ccc(Cl)cc3)cc2c1` the IC50 (H9c2) was > 79 µM (inactive).

With `Cc1c(/C=C/C(=O)c2ccc(Cl)s2)cnn1C` the IC50 [11] was > 80 µM (inactive).

In the case of `CC(NC(=O)CCSc1nc(-c2ccco2)cc(C(F)(F)F)n1)c1ccccc1` (stereo not given), the AC50 (Cytochrome P450 2C9) is reported as 15.8 µM (inconclusive) and the AC50 (Cytochrome P450 2D6) is reported as 15.8 µM (inconclusive).

With `COc1ccc(C(=O)Nc2ccc(OCC(F)(F)C(F)F)c(C(F)(F)F)c2)cc1OC` the AC50 (Cytochrome P450 2D6) was 22.4 µM (inconclusive) and the AC50 [12] was 3.78 µM (active).

With `Cc1cccc(C)c1OCCn1nc(C(=O)O)c2ccccc2c1=O` the IC50 (H9c2) was > 79 µM (inactive).

With `O=c1oc2cc(Br)ccc2n1CSC1=NCCS1` the AC50 [1] was 0.033 µM (active).

With `CN1CCc2nc3ccccc3c(C(=O)OCC(=O)N(CCC#N)c3ccccc3)c2C1` the IC50 (H9c2) was > 79 µM (inactive).

For `COc1ccc(-c2csc(NC(=O)c3cccc(N4C(=O)CCC4=O)c3)n2)cc1OC`, the IC50 (H9c2) was > 79 µM (inactive).

With `CC(C)c1ccc(NC2CCCN(C(=O)c3cnc4ccccn4c3=O)C2)cc1` (stereo not given) the AC50 [1] was 8.31 µM (active).

For `CCOC(=O)C1=C(C)N=C(C)C(=C(O)OCC)C1C(=O)OCC(=O)NC(C)C` (stereo not given), the IC50 (H9c2) was > 79 µM (inactive).

In the case of `CCN(CC(=O)Nc1cc(Cl)ccc1C)C(=O)C1CCN(c2ncnc3sc(C)c(C)c23)CC1`, the IC50 (H9c2) is reported as 12.7 µM (active).

For `O=C(N/N=C\c1ccccn1)c1cccc(C(=O)N/N=C\c2ccccn2)n1`, the IC50 (H9c2) was > 79 µM (inactive).

For `Cc1ncc(CO)c2cc(C(=O)Nc3ccccc3Cl)/c(=N/c3cccc(C(N)=O)c3)oc12`, the IC50 (H9c2) was 12.4 µM (active).

In the case of `COc1cccc(/C=N/NC(=O)CSc2cccc3cccnc23)c1`, the IC50 [11] is reported as > 80 µM (inactive).

In the case of `COc1cc(/C=N/N2CCCCC2)cc([N+](=O)[O-])c1O`, the AC50 [1] is reported as 2.71 µM (active).

In the case of `C=CCN1CCc2cccc3c2[C@@H]1Cc1ccc(O)c(O)c1-3`, the AC50 (Cytochrome P450 2C9) is reported as 31.6 µM (inconclusive), the AC50 (Cytochrome P450 2D6) is reported as 31.6 µM (inconclusive) and the AC50 (Cytochrome P450 3A4) is reported as 31.6 µM (inconclusive).

For `O=[N+]([O-])c1ccc(N/N=C/c2cn(Cc3ccc(F)cc3)c3ccccc23)nc1`, the EC50 [2] was 25.8 µM (active), the EC50 [4] was 15.2 µM (active) and the EC50 [5] was 12 µM (active).

With `COc1ccc(-n2cc(CNCCCn3ccnc3)c(-c3cccc(F)c3)n2)cc1` the CC50 (Vero) was > 25 µM (active).
